Common to all, as to assay: growth of human tumour cells (NCI), 48 h
Test [1] deals with A498 renal.
Test [2] relates to ACHN renal.
For test [3], the system named is HCT-116 colon.
The test system of test [4] is HOP-92 NSCLC.
For test [5], the system named is MALME-3M melanoma.
Test [6] relates to MDA-MB-231 breast.
Test [7] has as its system SF-539 CNS.
Test [8] relates to SK-OV-3 ovarian.
Test [9] concerns T-47D breast.
Test [10] has as its system UACC-62 melanoma.

For 15 molecules, GI50 and TGI results are on record in PubChem BioAssay (NCI).

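Exposure lasted 48 hours, with cells grown in 96-well plates and compounds tested at five concentrations. At the GI50, growth is halved. TGI marks complete inhibition of growth.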

As to `CSC1=Nc2c(c(C)c(-c3ccccc3)n2CCCN2CCCCC2)C2=NC(=O)C[C@H](C)N12`, the GI50 was 2600 nM in test [1]; 4780 nM in test [2]; 2710 nM in test [3]; 4.1 µM in test [4]; 2.63 µM in test [5]; 2590 nM in test [6]. In addition, the GI50 is 6070 nM in test [7], 2.66 µM in test [8], 2280 nM in test [9] and 3170 nM in test [10]. The TGI in [1] was 9.64 µM; in test [2], 43.8 µM; in test [3] it was over 44.6 µM; in [4] it was 48.9 µM; in test [5] it was 9.61 µM; in [6], over 30.9 µM. The TGI in test [7] worked out at 70.4 µM; in [8], 8.57 µM; in [9] it was 8.53 µM; in [10], 15.4 µM.

Consider `CCCCCCCC/C=C/CCCCCCCC1=NC(C)(C)CN1CC(C)O` (stereo unspecified), for which the GI50 in test [1] was 935 nM; in test [2], 1830 nM; in test [3] it was 1840 nM; in [4], 1.21 µM; in [5] it was 1.97 µM; in [6], 1660 nM. Further, the GI50 in test [7] was 1700 nM; in [8], 7.64 µM; in test [9] it was 2030 nM; in test [10], 1660 nM. For the same molecule, the TGI in test [1] came out at 17 µM; in test [2], 3.55 µM; in test [3] it was 3.32 µM; in test [4], 5.58 µM; in [5] it was 4.67 µM; in [6] it was 3.43 µM. The TGI in [7] stood at 3.09 µM; in test [8] it was 21.1 µM; in test [9], 4.58 µM; in test [10] it was 3.13 µM.

With `COc1c(O)c(OC)c2oc(-c3ccc(O)c(O)c3)c(OC)c(=O)c2c1O`, the TGI in [1] is over 100 µM; in [2], over 100 µM; in test [3], over 100 µM; in test [4], 66 µM; in test [5], 68 µM; in [6] it was over 100 µM. Besides, the TGI is over 100 µM in test [7], 54.4 µM in test [8], 33 µM in test [9] and 47.8 µM in test [10].

For `COc1ccc(N=Cc2c(O)ccc3c2oc2cc(Cl)c(O)c(Cl)c23)cc1`, the GI50 in [1] is 14500 nM; in test [2], 6220 nM; in test [3], 21000 nM; in [4], 6.09 µM; in [5] it was 3.63 µM; in test [6] it was 14700 nM. For the same molecule, the GI50 in test [7] was 7030 nM; in test [8] it was 15.9 µM; in [9], 7650 nM; in test [10], 10300 nM. Besides, the TGI in test [1] worked out at 28.5 µM; in test [2] it was 44.4 µM; in [3], 56.9 µM; in [4], 32.6 µM; in [5] it was 21.8 µM; in [6] it was 48.4 µM. In addition, the TGI in test [7] came out at 30.4 µM; in test [8], 49.5 µM; in test [9] it was 46.4 µM; in test [10] it was 33.7 µM.

`CCOC(=O)c1ccc(Nc2sc(C(=O)c3ccc(Br)cc3)c(N)c2C#N)cc1`: the GI50 in test [1] was 321 nM; in test [2] it was 3240 nM; in test [3] it was 732 nM; in test [4], 0.884 µM; in [5], 3.66 µM; in test [6] it was 2920 nM. Further, the GI50 is 1070 nM in [7], 1.04 µM in test [8], 2850 nM in test [9] and 483 nM in [10]. For the same molecule, the TGI in [1] is 6.02 µM; in test [2], over 100 µM; in test [3], over 100 µM; in test [4] it was over 100 µM; in test [5], over 100 µM; in test [6] it was over 100 µM. Also, the TGI in test [7], in test [8], in [9] and in [10] was over 100 µM in each case.

As for `O=C(/C=C/c1ccco1)c1cc(F)c(Cl)cc1Cl`, the GI50 in [1] was 18700 nM; in test [2] it was 20100 nM; in test [3], 14900 nM; in [4] it was 18.1 µM; in test [5], 16.5 µM; in [6] it was 21900 nM. Besides, the GI50 in [7] was 20000 nM; in test [8] it was 24.5 µM; in [9], 18100 nM; in test [10], 16500 nM. In addition, the TGI was 39.2 µM in [1]; 45.1 µM in [2]; 31.6 µM in [3]; 39.6 µM in test [4]; 38.7 µM in test [5]; 58 µM in test [6]. The TGI in test [7] worked out at 38.1 µM; in test [8], 80.1 µM; in [9], 56.8 µM; in test [10], 34.6 µM.

For the molecule `Cc1cccc(-c2[nH]ncc2-c2ccc3ncccc3n2)n1`, the GI50 in test [1] was over 14100 nM; in [2], 7100 nM; in test [3], 7780 nM; in test [4], 10 µM; in test [5], over 25 µM; in test [6] it was 14500 nM. The GI50 in test [7] was 17400 nM; in [8] it was over 21.9 µM; in test [9], 7070 nM; in [10] it was 13700 nM. In addition, the TGI in [1], in [2], in [3], in test [4], in test [5] and in test [6] was over 25 µM in each case. In addition, the TGI in test [7] was over 25 µM; in [8] it was over 25 µM; in test [9] it was over 23.9 µM; in [10], over 25 µM.

Consider `CN(C)c1ccc(/C=C/c2ccnc3c(O)cccc23)cc1`, for which the GI50 in test [1] is 3390 nM; in [2], 337 nM; in test [3], 401 nM; in test [4], 0.211 µM; in [5] it was 0.847 µM; in test [6], 434 nM. For the same molecule, the GI50 in test [7] is 344 nM; in test [8] it was 0.461 µM; in [9], 375 nM; in test [10], 294 nM. The TGI in test [1] is over 100 µM; in [2], over 100 µM; in test [3], over 100 µM; in test [5] it was 9.43 µM; in test [6], over 100 µM; in test [7] it was 3.33 µM. The TGI in test [8] was over 100 µM; in [9], over 100 µM; in [10], 1.07 µM.

As for `C=C(C)[C@@H]1CC[C@]2(COCCC#N)CC[C@]3(C)[C@H](CC[C@@H]4[C@@](C)(CCCNCCC#N)[C@H](C(=C)C)CC[C@]43C)[C@@H]12`, the GI50 is over 50000 nM in test [1]; 13200 nM in [2]; 7250 nM in [3]; 7.03 µM in test [4]; 8.42 µM in test [5]; 7830 nM in test [6]. Also, the GI50 in test [7] was 9780 nM; in test [8], over 50 µM; in [9], 8710 nM; in test [10], 8810 nM. Also, the TGI in test [1] is over 50 µM; in [2], over 50 µM; in [3], 13.8 µM; in test [4] it was 28.5 µM; in test [5], 16.2 µM; in [6], 17.7 µM. Moreover, the TGI in [7] is 20.4 µM; in test [8] it was over 50 µM; in [9], over 50 µM; in test [10] it was 23.1 µM.

On to `CCOC(=O)c1ccccc1OC(=O)NNc1ccccc1`, for which the GI50 is over 68000 nM in test [1]; 587 nM in test [2]; 1690 nM in [3]; 6.92 µM in test [4]; 5.44 µM in [5]; 10500 nM in [6]. Further, the GI50 in [7] is 312 nM; in test [8], over 79.9 µM; in test [9], 892 nM; in [10] it was 269 nM. The TGI in [1], in test [2], in test [3], in test [4], in test [5] and in test [6] was over 100 µM each time. In addition, the TGI was 1.33 µM in test [7], over 100 µM in test [8], over 100 µM in [9] and over 28.2 µM in [10].

Regarding `O=C1c2[nH]cc(CNC3CN4CCC3CC4)c2C(=O)c2c1c(O)c1ccccc1c2O` (stereo unspecified), the TGI in [1] was 1.72 µM; in test [2], 8.04 µM; in test [3], 2.65 µM; in test [5], 7.14 µM; in test [6], 3.09 µM; in [7], 3.61 µM. Moreover, the TGI in test [8] is 20.1 µM; in test [9], 39.2 µM; in [10] it was 37.6 µM. For the same molecule, the GI50 was 2600 nM in test [2]; 370 nM in [3]; 1.1 µM in test [4]; 2.78 µM in test [5]; 1410 nM in test [6]; 1940 nM in test [7]. Moreover, the GI50 is 3.71 µM in test [8], 19000 nM in test [9] and 14900 nM in [10].

As for `Cn1cc(C2=C(c3ccccc3[N+](=O)[O-])C(=O)NC2=O)c2ccccc21`, the GI50 was 384 nM in [1]; 1650 nM in [2]; 1380 nM in test [3]; 6.08 µM in test [4]; 9.55 µM in [5]; 4720 nM in [6]. The GI50 was 2610 nM in test [7], 4.79 µM in [8], 7520 nM in [9] and 3680 nM in test [10]. The TGI in test [1] is 2.57 µM; in test [2], over 23.4 µM; in test [3], over 25 µM; in [4], 16.6 µM; in [5], over 20.8 µM; in test [6], 19.6 µM. The TGI was 10.1 µM in [7], over 25 µM in test [8], 23.5 µM in [9] and 12.1 µM in test [10].

Take `C[C@]12CCc3nc(Nc4cccc(O)c4)sc3C1=CC[C@@H]1[C@@H]2CC[C@]2(C)/C(=N\NC(N)=S)CC[C@@H]12`: the GI50 in test [1] is 3010 nM; in test [2], 2150 nM; in [3], 1340 nM; in [4], 2.02 µM; in test [5] it was 1.6 µM; in [6], 1750 nM. Besides, the GI50 in test [7] was 464 nM; in test [8], 3.21 µM; in [9], 1830 nM; in test [10] it was 2010 nM. Besides, the TGI in [1] worked out at 15.5 µM; in test [2], 6 µM; in [3], 2.69 µM; in [4], 7.6 µM; in test [5], 3.51 µM; in [6] it was 4.95 µM. Also, the TGI in test [7] was found to be 1.84 µM; in test [8], 22 µM; in [9], 4.41 µM; in test [10], 4.46 µM.

As for `CCOC(=O)[C@@H](C)C[C@H](Cc1ccccc1)NC(=O)c1nc([C@@H](C[C@H](C(C)C)N(C)C(=O)[C@@H](NC(=O)[C@H]2CCCCN2C)C(C)C)OC(C)=O)sc1CCOCc1ccccc1`, the GI50 was 26.4 nM in [1]; 117 nM in test [2]; 47.3 nM in test [3]; 0.109 µM in test [4]; 0.0602 µM in test [5]; 175 nM in test [6]. Also, the GI50 was 57.1 nM in [7], 0.0188 µM in test [8], 72.1 nM in test [9] and 37.2 nM in test [10]. In addition, the TGI is 0.417 µM in test [1]; 3.06 µM in test [2]; 1.23 µM in test [3]; 2.34 µM in test [4]; 2.17 µM in [5]; 1.02 µM in test [6]. Besides, the TGI in test [7] was 0.39 µM; in [8] it was over 11.1 µM; in test [9] it was over 11.1 µM; in test [10] it was 1.69 µM.

As to `COC1C(CO)OC(n2c3ccccc3c3c4c(c5c6ccccc6[nH]c5c32)C(=O)NC4=O)C(O)C1O` (stereo unspecified), the GI50 is 16 nM in [1]; under 19.1 nM in [2]; 16 nM in test [3]; 0.0792 µM in [4]; under 0.018 µM in test [5]; 59.5 nM in [6]. For the same molecule, the GI50 was under 10 nM in [7], 0.0876 µM in test [8], under 12.6 nM in test [9] and 16.9 nM in test [10]. In addition, the TGI in test [1] stood at 0.0998 µM; in test [2], 0.0928 µM; in [3] it was 0.146 µM; in test [4] it was 1.22 µM; in test [6], 0.343 µM; in [7], 0.0359 µM. In addition, the TGI was determined as 2.22 µM in test [8], 0.117 µM in test [9] and 0.0902 µM in test [10].
